Assay results published in ChEMBL document CHEMBL1123128, “(+/-)-2-Amino-3,4-dihydro-7-[2,3-dihydroxy-4-(hydroxymethyl)-1- cyclopentyl]-7H-pyrrolo[2,3-d]pyrimidin-4-ones: new carbocyclic analogues of 7-deazaguanosine with antiviral activity” (1985).
In brackets after ≈: the same amount, converted by molar mass.

Tested on: Human alphaherpesvirus 1
Test: The minimal inhibitory concentration required to inhibit HSV-1 virus in MRC5 cells
Assay type: functional

With `Nc1nc(O)c2ccn([C@@H]3C[C@H](CO)[C@@H](O)[C@@H]3O)c2n1` the MIC was 25 µg/mL (≈ 89.2 µM).

With `Nc1nc(O)c2ccn([C@@H]3C[C@H](CO)[C@H](O)[C@@H]3O)c2n1` the MIC was 100 µg/mL (≈ 357 µM).
